# Experimental data from US10633419B2, “Immunomodulators” (BRISTOL-MYERS SQUIBB COMPANY, priority 2014, dated 2020).
# Positions of bridges follow the written chain, without caps; N, C: chain ends. Non-standard residues stand in square brackets, D forms with d. Residues, ends and D or L forms follow the SMILES beside them. Trp(1-CH2COOH) = N[C@@H](Cc1cn(CC(=O)O)c2ccccc12)C(=O)O; Hyp = O=C(O)[C@@H]1C[C@@H](O)CN1; NMeNle = CCCC[C@H](NC)C(=O)O; NMeA = CN[C@@H](C)C(=O)O; Aun = NCCCCCCCCCCC(=O)O; Dab = NCC[C@H](N)C(=O)O; Dap = NC[C@H](N)C(=O)O
# Molecular target: T1, PD-L1 (Homo sapiens, UniProt Q9NZQ7)
# T1 construct: hPDL1(19-239)-TVMV-His; made in house; host or cells: HEK293T
# Experiment: PD-1/PD-L1 Homogenous Time-Resolved Fluorescence (HTRF) binding assay (PD-1-Ig/PD-L1-His)
# Conditions: inhibition of PD-1-Ig binding to PD-L1-TVMV-His; value given as number; read-out: HTRF IC50
# Outline: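 Inhibitors pre-incubated 15 min with PD-L1-His (10 nM final), then PD-1-Ig (20 nM final) added for 15 min in dPBS/0.1% BSA/0.05% Tween-20. Eu-cryptate anti-Ig (1 nM) and APC anti-His (20 nM) added, 30 min equilibration, 665/620 nm HTRF ratio read.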
# T1 sequence (Q9NZQ7 with tags, fused parts or gaps): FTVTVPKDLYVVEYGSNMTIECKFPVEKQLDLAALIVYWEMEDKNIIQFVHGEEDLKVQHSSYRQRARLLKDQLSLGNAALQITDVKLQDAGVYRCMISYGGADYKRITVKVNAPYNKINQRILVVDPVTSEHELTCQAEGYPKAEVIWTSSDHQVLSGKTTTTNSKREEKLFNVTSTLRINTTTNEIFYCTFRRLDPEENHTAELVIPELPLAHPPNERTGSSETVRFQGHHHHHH
row,IC50 [nM],SMILES
1,13.5,CCCC[C@H]1C(=O)N(C)[C@@H](CCCC)C(=O)N[C@@H](CC(C)C)C(=O)N[C@H](C(=O)NCC(=O)NCC(=O)NCC(=O)NCCCCCCCCCCC(=O)O)CSCC(=O)N[C@@H](Cc2ccc(O)cc2)C(=O)N(C)[C@@H](C)C(=O)N[C@@H](CCC(=O)O)C(=O)N2CCC[C@H]2C(=O)N[C@@H](Cc2cnc[nH]2)C(=O)N[C@@H](CCCCN)C(=O)N2C[C@H](O)C[C@H]2C(=O)N[C@@H](Cc2c[nH]c3ccccc23)C(=O)N[C@@H](CCCCN)C(=O)N[C@@H](Cc2cn(CC(=O)O)c3ccccc23)C(=O)N1C [Example 11092] ({CH2CO}-Y[NMeA]EPHK[Hyp]WK[Trp(1-CH2COOH)][NMeNle][NMeNle]LCGGG[Aun]-OH; thioether N-14)
2,18.8,CCCC[C@H]1C(=O)N(C)[C@@H](CCCC)C(=O)N[C@@H](CC(C)C)C(=O)N[C@H](C(=O)NCC(=O)NCC(=O)NCC(=O)NCCCCCCCCCCC(=O)O)CSCC(=O)N[C@@H](Cc2ccc(O)cc2)C(=O)N(C)[C@@H](C)C(=O)N[C@@H](CC(N)=O)C(=O)N2CCC[C@H]2C(=O)N[C@@H](CN)C(=O)N[C@@H](CCC(N)=O)C(=O)N2C[C@H](O)C[C@H]2C(=O)N[C@@H](Cc2c[nH]c3ccccc23)C(=O)N[C@@H](CCN)C(=O)N[C@@H](Cc2cn(CC(=O)O)c3ccccc23)C(=O)N1C [Example 11094] ({CH2CO}-Y[NMeA]NP[Dap]Q[Hyp]W[Dab][Trp(1-CH2COOH)][NMeNle][NMeNle]LCGGG[Aun]-OH; thioether N-14)

# Same assay, conditions: inhibition of PD-1-Ig binding to PD-L1-TVMV-His; value given as range class; read-out: HTRF IC50
row,SMILES,IC50 [nM]
1,CCCC[C@H]1C(=O)N(C)[C@@H](CCCC)C(=O)N[C@@H](CC(C)C)C(=O)N[C@H](C(=O)NCC(=O)NCC(=O)NCC(=O)NCCCCCCCCCCC(=O)O)CSCC(=O)N[C@@H](Cc2ccc(O)cc2)C(=O)N(C)[C@@H](C)C(=O)N[C@@H](CC(N)=O)C(=O)N2CCC[C@H]2C(=O)N[C@@H](CN)C(=O)N[C@@H](CCC(=O)O)C(=O)N2C[C@H](O)C[C@H]2C(=O)N[C@@H](Cc2c[nH]c3ccccc23)C(=O)N[C@@H](CCN)C(=O)N[C@@H](Cc2cn(CC(=O)O)c3ccccc23)C(=O)N1C [Example 11093] ({CH2CO}-Y[NMeA]NP[Dap]E[Hyp]W[Dab][Trp(1-CH2COOH)][NMeNle][NMeNle]LCGGG[Aun]-OH; thioether N-14),10 to 99
2,CCCC[C@H]1C(=O)N(C)[C@@H](CCCC)C(=O)N[C@@H](CC(C)C)C(=O)N[C@H](C(=O)NCC(=O)NCC(=O)NCC(=O)NCCCCCCCCCCC(=O)O)CSCC(=O)N[C@@H](Cc2ccc(O)cc2)C(=O)N(C)[C@@H](C)C(=O)N[C@@H](CC(=O)O)C(=O)N2CCC[C@H]2C(=O)N[C@@H](CN)C(=O)N[C@@H](CC(C)C)C(=O)N2C[C@H](O)C[C@H]2C(=O)N[C@@H](Cc2c[nH]c3ccccc23)C(=O)N[C@@H](CCN)C(=O)N[C@@H](Cc2cn(CC(=O)O)c3ccccc23)C(=O)N1C [Example 11096] ({CH2CO}-Y[NMeA]DP[Dap]L[Hyp]W[Dab][Trp(1-CH2COOH)][NMeNle][NMeNle]LCGGG[Aun]-OH; thioether N-14),10 to 99
3,CCCC[C@H]1C(=O)N(C)[C@@H](CCCC)C(=O)N[C@@H](CC(C)C)C(=O)N[C@H](C(=O)NCC(=O)NCC(=O)NCC(=O)NCCCCCCCCCCC(=O)O)CSCC(=O)N[C@@H](Cc2ccc(O)cc2)C(=O)N(C)[C@@H](C)C(=O)N[C@@H](CC(=O)O)C(=O)N2CCC[C@H]2C(=O)N[C@@H](CN)C(=O)N[C@@H](CCC(=O)O)C(=O)N2C[C@H](O)C[C@H]2C(=O)N[C@@H](Cc2c[nH]c3ccccc23)C(=O)N[C@@H](CCN)C(=O)N[C@@H](Cc2cn(CC(=O)O)c3ccccc23)C(=O)N1C [Example 11097] ({CH2CO}-Y[NMeA]DP[Dap]E[Hyp]W[Dab][Trp(1-CH2COOH)][NMeNle][NMeNle]LCGGG[Aun]-OH; thioether N-14),10 to 99
4,CCCC[C@H]1C(=O)N(C)[C@@H](CCCC)C(=O)N[C@@H](CC(C)C)C(=O)N[C@H](C(=O)NCC(=O)NCC(=O)NCC(=O)NCCCCCCCCCCC(=O)O)CSCC(=O)N[C@@H](Cc2ccc(O)cc2)C(=O)N(C)[C@@H](C)C(=O)N[C@@H](CC(=O)O)C(=O)N2CCC[C@H]2C(=O)N[C@@H](Cc2cnc[nH]2)C(=O)N[C@@H](CCC(=O)O)C(=O)N2C[C@H](O)C[C@H]2C(=O)N[C@@H](Cc2c[nH]c3ccccc23)C(=O)N[C@@H](CCN)C(=O)N[C@@H](Cc2cn(CC(=O)O)c3ccccc23)C(=O)N1C [Example 11098] ({CH2CO}-Y[NMeA]DPHE[Hyp]W[Dab][Trp(1-CH2COOH)][NMeNle][NMeNle]LCGGG[Aun]-OH; thioether N-14),10 to 99

# Now from value to compound:
row,IC50 [nM],SMILES
1,10 to 99,CCCC[C@H]1C(=O)N(C)[C@@H](CCCC)C(=O)N[C@@H](CC(C)C)C(=O)N[C@H](C(=O)NCCCCCCCCCCC(=O)NCCCCCCCCCCC(=O)O)CSCC(=O)N[C@@H](Cc2ccc(O)cc2)C(=O)N(C)[C@@H](C)C(=O)N[C@@H](CC(N)=O)C(=O)N2CCC[C@H]2C(=O)N[C@@H](CN)C(=O)N[C@@H](CCC(N)=O)C(=O)N2C[C@H](O)C[C@H]2C(=O)N[C@@H](Cc2c[nH]c3ccccc23)C(=O)N[C@@H](CO)C(=O)N[C@@H](Cc2cn(CC(=O)O)c3ccccc23)C(=O)N1C [Example 11089] ({CH2CO}-Y[NMeA]NP[Dap]Q[Hyp]WS[Trp(1-CH2COOH)][NMeNle][NMeNle]LC[Aun][Aun]-OH; thioether N-14)
2,10 to 99,CCCC[C@H]1C(=O)N(C)[C@@H](CCCC)C(=O)N[C@@H](CC(C)C)C(=O)N[C@H](C(=O)NCCCCCCCCCCC(=O)NCCCCCCCCCCC(=O)NCCCCCCCCCCC(=O)O)CSCC(=O)N[C@@H](Cc2ccc(O)cc2)C(=O)N(C)[C@@H](C)C(=O)N[C@@H](CC(N)=O)C(=O)N2CCC[C@H]2C(=O)N[C@@H](CN)C(=O)N[C@@H](CCC(N)=O)C(=O)N2C[C@H](O)C[C@H]2C(=O)N[C@@H](Cc2c[nH]c3ccccc23)C(=O)N[C@@H](CO)C(=O)N[C@@H](Cc2cn(CC(=O)O)c3ccccc23)C(=O)N1C [Example 11090] ({CH2CO}-Y[NMeA]NP[Dap]Q[Hyp]WS[Trp(1-CH2COOH)][NMeNle][NMeNle]LC[Aun][Aun][Aun]-OH; thioether N-14)
3,0.3 to 9.9,CCCC[C@H]1C(=O)N(C)[C@@H](CCCC)C(=O)N[C@@H](CC(C)C)C(=O)N[C@H](C(=O)NCC(=O)NCC(=O)NCC(=O)NCCCCCCCCCCC(=O)O)CSCC(=O)N[C@@H](Cc2ccc(O)cc2)C(=O)N(C)[C@@H](C)C(=O)N[C@@H](CC(N)=O)C(=O)N2CCC[C@H]2C(=O)N[C@@H](CN)C(=O)N[C@@H](CC(C)C)C(=O)N2C[C@H](O)C[C@H]2C(=O)N[C@@H](Cc2c[nH]c3ccccc23)C(=O)N[C@@H](CCN)C(=O)N[C@@H](Cc2cn(CC(=O)O)c3ccccc23)C(=O)N1C [Example 11091] ({CH2CO}-Y[NMeA]NP[Dap]L[Hyp]W[Dab][Trp(1-CH2COOH)][NMeNle][NMeNle]LCGGG[Aun]-OH; thioether N-14)
4,0.3 to 9.9,CCCC[C@H]1C(=O)N(C)[C@@H](CCCC)C(=O)N[C@@H](CC(C)C)C(=O)N[C@H](C(=O)NCC(=O)NCC(=O)NCC(=O)NCCCCCCCCCCC(=O)O)CSCC(=O)N[C@@H](Cc2ccc(O)cc2)C(=O)N(C)[C@@H](C)C(=O)N[C@@H](CC(=O)O)C(=O)N2CCC[C@H]2C(=O)N[C@@H](CN)C(=O)N[C@@H](CCC(N)=O)C(=O)N2C[C@H](O)C[C@H]2C(=O)N[C@@H](Cc2c[nH]c3ccccc23)C(=O)N[C@@H](CCN)C(=O)N[C@@H](Cc2cn(CC(=O)O)c3ccccc23)C(=O)N1C [Example 11095] ({CH2CO}-Y[NMeA]DP[Dap]Q[Hyp]W[Dab][Trp(1-CH2COOH)][NMeNle][NMeNle]LCGGG[Aun]-OH; thioether N-14)
